The record followed here is ChEMBL document CHEMBL1141329, “Cyclic peptides from an endophytic fungus obtained from a mangrove leaf (Kandelia candel)” (J Nat Prod, 2007).

In brackets after ≈: the same amount, converted by molar mass.

The assay concerns MCF7. Kind of assay: Antitumor activity against human MCF7 cells by MTT assay. Format: functional, cell-based.

The term IC50 denotes the point on the concentration scale where inhibition reaches its midpoint. A lower IC50 goes with inhibition by little substance. `CC(C)C[C@@H]1OC(=O)CNC(=O)[C@H](C(C)C)NC(=O)[C@H](Cc2ccc(O)cc2)NC(=O)CNC(=O)[C@@H](CC(C)C)NC1=O` came in with an IC50 of 100 µg/mL (≈ 166 µM).
